Assay results published in US5239058A, “Proteins having anticoagulant properties” (Merck & Co., Inc., priority 1992, dated 1993).

How the values were obtained:
human Factor Xa = target: T1, human Factor Xa (Homo sapiens, UniProt P00742); assay: Factor Xa chromogenic enzyme assay (Spectrozyme Xa); assay type: biochemical; conditions: for Ki: inhibitor pre-incubated with human Factor Xa, tight binding equation, read-out: Ki for inhibition of Factor Xa
T1 construct: purchased Enzyme Research Laboratories
T1 sequence (P00742 235-488 limits assumed): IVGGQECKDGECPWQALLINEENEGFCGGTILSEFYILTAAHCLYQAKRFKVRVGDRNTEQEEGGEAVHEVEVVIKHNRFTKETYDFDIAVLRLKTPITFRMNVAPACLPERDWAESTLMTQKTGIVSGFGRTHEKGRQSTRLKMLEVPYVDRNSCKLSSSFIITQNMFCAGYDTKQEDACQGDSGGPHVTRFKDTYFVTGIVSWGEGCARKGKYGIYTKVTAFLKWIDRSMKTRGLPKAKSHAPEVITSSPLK
T1 sequence (P00742 41-179 partner limits assumed): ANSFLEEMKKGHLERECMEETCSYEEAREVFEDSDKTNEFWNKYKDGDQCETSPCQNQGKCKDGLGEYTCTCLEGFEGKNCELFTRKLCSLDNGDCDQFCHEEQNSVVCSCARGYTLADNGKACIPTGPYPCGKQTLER
Method: (§1) Assays were carried out at room temperature in 96-well microtiter plates. The color developed from the hydrolysis of peptide-nitroanilide substrates was monitored continuously at 405 nM on a Vmax machine (Molecular Devices). The concentration of Factor Xa was determined by active site titration. The concentrations of working solutions of the other proteases were determined spectrophotometrically using published extinction coefficients. The concentration of purified inhibitor was determined by quantitative amino acid analysis. […] In the case of human Factor Xa, the buffers also included 0.1% BSA; for S. aureus V8 protease the buffer was 50 mM NH4 HCo3. The substrates used were: Spectrozyme Xa (Factor Xa), S-2238 (thrombin), S-2356 (chymotrypsin), S-2366 (Factor XIa) Boc-AlaAla-Pro-Ala-pNA (elastase), Spectrozyme Pkal (kallikrein), Spectrozyme PL (plasmin), Spectrozyme UK (urokinase) Z-Phe-Leu-Glu-pNA (S. aureus V8 protease) and Spectrozyme tPA for tPA. Factor VIIa was assayed by measuring the release of the ^3 H-activation peptide from human Factor X. For kinetic analyses, assays were carried for up to 10 min. followed by estimation of the initial rate where less than 5% of the added substrate was utilized.
(§2) Because the TAP-1 was pre-incubated with the human Factor Xa to establish equilibrium in the absence of substrate, a value for the intrinsic Ki irrespective of the mechanism was calculated (solid line) using the equation for tight binding inhibition described in the article by Morrison, J. F. in Biochem. Biophys. Acta 185,269 (1969). The effect on TAP-1 on various proteases also was tested.

Normal Human Plasma [1] = assay: Modified Stypven Time, plasma based clotting assay; assay type: biochemical
Normal Human Plasma [2] = assay: Activated Partial Thromboplastin Time, plasma based clotting assay; assay type: biochemical
urokinase = target: T2, urokinase (Homo sapiens, UniProt P00749); assay: urokinase chromogenic enzyme assay (Spectrozyme UK); assay type: biochemical; conditions: 300-fold molar excess of TAP-1 over protease
T2 construct: purchased Calbiochem
Description: (§3) Ornithodoros moubata ticks were obtained from South Africa through Antibody Associates, Inc. (Bedford, Tex.). Colorimetric substrates were purchased from Helena Labs, American Diagnostica, and Chemical Dynamics. Human Factor Xa was from Enzyme Research Laboratories. Human plasmin, urokinase, and bovine thrombin were from Calbiochem; bovine trypsin, chymotrypsin, and pancreatic elastase were from Worthington Enzymes, Inc. Plasma kallikrein, carboxypeptidase Y, S. aureus V8 protease and protease inhibitors were from Sigma. Two chain tPA was from American Diagnostica.
(§4) Assays were carried out at room temperature in 96-well microtiter plates. […] The concentration of Factor Xa was determined by active site titration. The concentrations of working solutions of the other proteases were determined spectrophotometrically using published extinction coefficients. The concentration of purified inhibitor was determined by quantitative amino acid analysis. […]
as §2, with “Acta 185,269 (1969). The effect on TAP-1 on various proteases also was tested.” left out

Normal Human Plasma [3] = assay: Prothrombin Time, plasma based clotting assay; assay type: biochemical
plasmin = target: T3, plasmin (Homo sapiens, UniProt P00747); assay: plasmin chromogenic enzyme assay (Spectrozyme PL); assay type: biochemical; conditions: 300-fold molar excess of TAP-1 over protease
T3 construct: Human plasmin, urokinase, and bovine thrombin were from Calbiochem; purchased Calbiochem
T3 sequence (P00747 581-810 limits assumed): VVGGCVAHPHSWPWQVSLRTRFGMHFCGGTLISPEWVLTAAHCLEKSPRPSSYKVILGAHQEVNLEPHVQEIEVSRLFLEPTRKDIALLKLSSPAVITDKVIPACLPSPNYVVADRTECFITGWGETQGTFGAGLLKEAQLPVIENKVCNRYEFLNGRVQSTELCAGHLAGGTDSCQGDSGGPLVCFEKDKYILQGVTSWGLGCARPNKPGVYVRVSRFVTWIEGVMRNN
T3 sequence (P00747 97-580 partner limits assumed): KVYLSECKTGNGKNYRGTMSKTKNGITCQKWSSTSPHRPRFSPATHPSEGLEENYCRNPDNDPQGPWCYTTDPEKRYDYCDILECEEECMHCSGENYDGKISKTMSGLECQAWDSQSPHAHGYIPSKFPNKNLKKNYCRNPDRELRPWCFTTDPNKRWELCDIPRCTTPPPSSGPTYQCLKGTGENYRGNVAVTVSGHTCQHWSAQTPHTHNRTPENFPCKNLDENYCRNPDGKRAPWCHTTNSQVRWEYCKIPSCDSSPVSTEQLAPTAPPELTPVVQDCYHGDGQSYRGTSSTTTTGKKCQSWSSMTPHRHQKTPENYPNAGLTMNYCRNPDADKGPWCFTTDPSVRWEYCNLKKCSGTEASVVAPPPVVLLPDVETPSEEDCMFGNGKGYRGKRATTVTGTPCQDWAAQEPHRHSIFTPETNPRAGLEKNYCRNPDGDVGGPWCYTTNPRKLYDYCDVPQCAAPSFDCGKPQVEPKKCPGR
Description: as §3, §4
as §2, with “Acta 185,269 (1969). The effect on TAP-1 on various proteases also was tested.” left out

Plasma kallikrein = target: T4, Plasma kallikrein (Homo sapiens, UniProt P03952); assay: kallikrein chromogenic enzyme assay (Spectrozyme Pkal); assay type: biochemical; conditions: 300-fold molar excess of TAP-1 over protease
T4 construct: purchased Sigma
T4 sequence (P03952 391-638 limits assumed, species assumed): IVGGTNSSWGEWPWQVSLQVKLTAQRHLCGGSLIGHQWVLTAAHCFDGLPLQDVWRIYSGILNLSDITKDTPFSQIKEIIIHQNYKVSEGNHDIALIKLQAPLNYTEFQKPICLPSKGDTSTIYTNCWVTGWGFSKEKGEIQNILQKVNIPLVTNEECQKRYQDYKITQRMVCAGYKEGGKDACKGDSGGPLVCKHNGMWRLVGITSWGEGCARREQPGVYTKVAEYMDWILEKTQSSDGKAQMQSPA
T4 sequence (P03952 20-390 partner limits assumed, species assumed): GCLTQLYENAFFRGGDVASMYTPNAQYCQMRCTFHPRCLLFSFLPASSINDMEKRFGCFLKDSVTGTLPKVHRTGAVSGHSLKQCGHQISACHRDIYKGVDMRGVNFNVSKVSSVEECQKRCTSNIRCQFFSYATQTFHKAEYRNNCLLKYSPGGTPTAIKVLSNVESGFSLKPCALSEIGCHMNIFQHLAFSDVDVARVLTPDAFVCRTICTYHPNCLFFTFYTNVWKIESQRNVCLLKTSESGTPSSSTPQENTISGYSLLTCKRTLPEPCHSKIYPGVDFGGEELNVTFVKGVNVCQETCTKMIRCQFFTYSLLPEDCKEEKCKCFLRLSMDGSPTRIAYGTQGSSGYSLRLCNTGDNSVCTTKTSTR
Description: as §3, §4
as §2, with “Acta 185,269 (1969). The effect on TAP-1 on various proteases also was tested.” left out

pancreatic elastase = target: T5, pancreatic elastase (Sus scrofa, UniProt P00772); assay: elastase chromogenic enzyme assay (Boc-AlaAla-Pro-Ala-pNA); assay type: biochemical; conditions: 300-fold molar excess of TAP-1 over protease
T5 construct: purchased Worthington Enzymes, Inc
T5 sequence (P00772 27-266): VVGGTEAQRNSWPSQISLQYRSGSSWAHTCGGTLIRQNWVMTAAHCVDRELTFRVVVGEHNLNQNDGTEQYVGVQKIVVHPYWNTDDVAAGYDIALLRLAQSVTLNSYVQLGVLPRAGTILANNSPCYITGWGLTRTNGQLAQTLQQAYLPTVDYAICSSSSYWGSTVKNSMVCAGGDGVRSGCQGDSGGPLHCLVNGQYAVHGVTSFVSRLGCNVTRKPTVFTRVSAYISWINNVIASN
Description: as §3, §4
as §2, with “Acta 185,269 (1969). The effect on TAP-1 on various proteases also was tested.” left out

S. aureus V8 protease = S. aureus V8 protease (Staphylococcus aureus, UniProt P0C1U8); conditions: 300-fold molar excess of TAP-1 over protease
Sequence of S. aureus V8 protease (P0C1U8 69-336): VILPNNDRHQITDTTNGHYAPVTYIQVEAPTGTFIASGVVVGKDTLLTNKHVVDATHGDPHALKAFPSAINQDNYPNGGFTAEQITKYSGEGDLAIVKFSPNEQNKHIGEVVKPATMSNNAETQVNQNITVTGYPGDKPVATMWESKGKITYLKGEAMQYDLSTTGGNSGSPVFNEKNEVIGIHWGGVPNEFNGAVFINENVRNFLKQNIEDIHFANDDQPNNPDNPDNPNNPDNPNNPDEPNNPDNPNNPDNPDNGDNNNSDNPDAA
Description: as §3, §4
as §2, with “Acta 185,269 (1969). The effect on TAP-1 on various proteases also was tested.” left out

trypsin = target: T6, trypsin (Bos taurus, UniProt P00760); assay: trypsin chromogenic enzyme assay; assay type: biochemical, bovine; conditions: 300-fold molar excess of TAP-1 over protease
T6 construct: purchased Worthington Enzymes, Inc
T6 sequence (P00760 24-246): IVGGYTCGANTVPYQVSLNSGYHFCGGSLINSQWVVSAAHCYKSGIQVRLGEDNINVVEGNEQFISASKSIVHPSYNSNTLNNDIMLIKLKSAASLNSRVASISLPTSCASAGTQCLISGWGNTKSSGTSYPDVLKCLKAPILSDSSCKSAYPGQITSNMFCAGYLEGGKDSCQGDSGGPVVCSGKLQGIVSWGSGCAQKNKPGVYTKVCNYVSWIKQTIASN
Description: as §3, §4
as §2, with “Acta 185,269 (1969). The effect on TAP-1 on various proteases also was tested.” left out

thrombin = target: T7, thrombin (Bos taurus, UniProt P00735); assay: thrombin chromogenic enzyme assay (S-2238); assay type: biochemical, bovine; conditions: 300-fold molar excess of TAP-1 over protease
T7 construct: responsible for the Factor Xa conversion of prothrombin to thrombin in vivo; purchased Calbiochem
Description: as §3, §4
as §2, with “Acta 185,269 (1969). The effect on TAP-1 on various proteases also was tested.” left out

Factor VIIa = Factor VIIa (Homo sapiens, UniProt P08709); assay: Factor VIIa assay (release of 3H-activation peptide from human Factor X); assay type: biochemical; conditions: 300-fold molar excess of TAP-1 over protease
Sequence of Factor VIIa (P08709 213-466 limits assumed): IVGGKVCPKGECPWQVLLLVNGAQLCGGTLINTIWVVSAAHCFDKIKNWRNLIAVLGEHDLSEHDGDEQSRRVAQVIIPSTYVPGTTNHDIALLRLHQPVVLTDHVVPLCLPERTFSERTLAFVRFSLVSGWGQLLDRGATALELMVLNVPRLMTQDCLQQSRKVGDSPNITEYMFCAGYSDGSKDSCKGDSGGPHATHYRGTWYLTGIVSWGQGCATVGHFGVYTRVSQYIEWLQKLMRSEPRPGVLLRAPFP
Sequence of Factor VIIa (P08709 61-212 partner limits assumed): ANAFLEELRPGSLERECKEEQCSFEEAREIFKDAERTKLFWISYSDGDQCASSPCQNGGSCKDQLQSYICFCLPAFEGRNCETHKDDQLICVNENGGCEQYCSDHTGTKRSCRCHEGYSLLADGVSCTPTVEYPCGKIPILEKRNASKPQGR
Sequence of Factor VIIa (P13726 33-295 partner): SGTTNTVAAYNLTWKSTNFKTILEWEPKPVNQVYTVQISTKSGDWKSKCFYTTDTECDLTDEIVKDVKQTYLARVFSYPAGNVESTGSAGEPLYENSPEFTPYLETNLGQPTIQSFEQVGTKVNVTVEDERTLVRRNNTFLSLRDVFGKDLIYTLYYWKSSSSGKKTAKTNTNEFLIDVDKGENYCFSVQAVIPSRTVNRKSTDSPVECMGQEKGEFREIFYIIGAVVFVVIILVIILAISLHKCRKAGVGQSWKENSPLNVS
Method: as §1, with “Factor VIIa was assayed by measuring the release of the ^3 H-activation peptide from human Factor X. For kinetic analyses, assays were carried for up to 10 min. followed by estimation of the initial rate where less than 5% of the added substrate was utilized.” left out
as §2, with “Acta 185,269 (1969). The effect on TAP-1 on various proteases also was tested.” left out

chymotrypsin = target: T8, chymotrypsin (Bos taurus, UniProt P00766); assay: chymotrypsin chromogenic enzyme assay (S-2356); assay type: biochemical, bovine; conditions: 300-fold molar excess of TAP-1 over protease
T8 construct: purchased Worthington Enzymes, Inc
Description: as §3, §4
as §2, with “Acta 185,269 (1969). The effect on TAP-1 on various proteases also was tested.” left out

[4] = tested on: thromboplastin-induced clot formation; assay: in vivo model of thromboplastin-induced clot formation (jugular vein); parameters: species or system rabbit; conditions: rabbits, untreated 29.2±3.4%
Method: An in vivo model of thromboplastin-induced clot formation similar to Van Ryn-McKenna, et al., (1989) Thrombosis and Haemostasis 61:7-9 was used to determine the efficacy of the Factor Xa inhibitor recombinant TAP-1. Rabbits were pretreated with an infusion of recombinant TAP-1 for 60 minutes, at which time a segment of the jugular vein was isolated and occluded. Thromboplastin and whole blood withdrawn from the carotid artery were injected into the segment in order to induce clot formation. The jugular vein remained occluded for 30 minutes before the clot was removed and quantitated.

prothrombin time = prothrombin time in infused rabbits; assay type: in vivo, rabbit; conditions: i.v. infusions of 7, 37 and 64 μg/kg/min
[5] = tested on: activated partial thromboplastin time; assay: activated partial thromboplastin time in infused rabbits; assay type: in vivo, rabbit; conditions: i.v. infusions of 7, 37 and 64 μg/kg/min
[6] = 28.9 pMol TAP-1, Normal Human Plasma
[7] = 57.8 pMol TAP-1, Normal Human Plasma
[8] = 115 pMol TAP-1, Normal Human Plasma

Q: Which results are given for “TAP-1: 60 amino acid Factor Xa inhibitor protein purified from Ornithodoros moubata tick extracts (YNRLCIKPRDWIDECDSNEGGERAYFRNGKGGCDSFWICPEDHTGADYYSSYRDCFNACI; UniProt P17726 1-60, looked up)”?
A: effect of Ca++ on the ability to inhibit Factor Xa (human Factor Xa; inclusion of 1-5 mM Ca++): no effect; Ki (human Factor Xa): 0.58 nM; Clotting Time, Modified Stypven Time (Normal Human Plasma [1]; [6]): 17.7 s; Clotting Time, Modified Stypven Time (Normal Human Plasma [1]; [7]): 31.2 s; Clotting Time, Modified Stypven Time (Normal Human Plasma [1]; [8]): 65.1 s; Clotting Time, Activated Partial Thromboplastin Time (Normal Human Plasma [2]; [6]): 45.2 s; Clotting Time, Activated Partial Thromboplastin Time (Normal Human Plasma [2]; [7]): 57.7 s; Clotting Time, Activated Partial Thromboplastin Time (Normal Human Plasma [2]; [8]): 92.2 s; inhibition of urokinase (urokinase): no inhibition; Clotting Time, Prothrombin Time (Normal Human Plasma [3]; 1.15 pMol TAP-1, Normal Human Plasma): 15.1 s; Clotting Time, Prothrombin Time (Normal Human Plasma [3]; [6]): 28.9 s; Clotting Time, Prothrombin Time (Normal Human Plasma [3]; [7]): 31.2 s; Clotting Time, Prothrombin Time (Normal Human Plasma [3]; [8]): 48.7 s; inhibition of plasmin (plasmin): no inhibition; inhibition of kallikrein (Plasma kallikrein): no inhibition; inhibition of elastase (pancreatic elastase): no inhibition; inhibition of S. aureus V8 protease (S. aureus V8 protease): no inhibition; inhibition of trypsin (trypsin): no inhibition; inhibition of thrombin (thrombin): no inhibition; inhibition of Factor VIIa (Factor VIIa): no inhibition; inhibition of chymotrypsin (chymotrypsin): no inhibition

Q: Which results are given for “recombinant TAP-1: TAP-1 expressed from a synthetic gene in S. cerevisiae and purified from broth (YNRLCIKPRDWIDECDSNEGGERAYFRNGKGGCDSFWICPEDHTGADYYSSYRDCFNACI; UniProt P17726 1-60, looked up)”?
A: Clot formation (normalized clot value) ([4]; i.v. infusion 7 μg/kg/min for 60 minutes): 27.0±7.5%; Clot formation (normalized clot value) ([4]; i.v. infusion 37 μg/kg/min for 60 minutes): 7.9±2.0%; Clot formation (normalized clot value) ([4]; i.v. infusion 64 μg/kg/min for 60 minutes): 1.9±1.0%; Ki (human Factor Xa): 0.2 nM; effect on prothrombin time (prothrombin time): did not significantly increase; effect on activated partial thromboplastin time [5]: did not significantly increase
